Patent publication US8841077B2, “Biomarkers for amyotrophic lateral sclerosis and methods using the same” (Massachusetts General Hospital, priority 2006, dated 2014)

Key:
[1] = Metabolomics demographic study of plasma from 270 healthy volunteers of various ages (Table 11); type: in vivo, human; settings: normal adults
[2] = Caffeine and paraxanthine in plasma of ALS patients vs peripheral neuropathy or myopathy patients (Examples 6, 7; Tables 12, 13); type: in vivo, human
Method: All research participants provided informed consent. A board-certified neurologist reviewed and confirmed diagnosis for all participants. Data on gender, age, weight, and medications was collected. For participants with ALS, date and site of symptom onset, date of diagnosis, and family history of ALS was recorded.

[3] = Caffeine and caffeine metabolites in plasma of ALS patients vs healthy control subjects (Examples 4, 5; Tables 9, 10)
Method: Metabolomic analysis of two independent ALS studies was carried out to assess the changes of metabolite levels in plasma from ALS patients relative to healthy control subjects. Thirty-one healthy control volunteers and 31 participants with ALS enrolled in Study 1. Study 2 was comprised of ninety-nine participants with ALS and 94 healthy volunteers. All research participants provided informed consent. A board-certified neurologist reviewed and confirmed diagnosis for all participants. Data on gender, age, weight, and medications was collected. For participants with ALS, date and site of symptom onset, date of diagnosis, and family history of ALS was recorded. Healthy control subjects were defined by the absence of a known neurological disorder.
A measure of caffeine clearance rate is reflected in the ratio of caffeine metabolites to caffeine.

| Paraxanthine/Caffeine (P/C) Ratio ([1]; age 25-35) | Paraxanthine/Caffeine (P/C) Ratio ([1]; age 36-50) | Paraxanthine/Caffeine (P/C) Ratio ([1]; age 51-65) | Paraxanthine/Caffeine Ratio ([2]; ALS) | Paraxanthine/Caffeine Ratio ([2]; Myopathy) | Paraxanthine/Caffeine Ratio ([2]; PN) | Theophylline/Caffeine (T/C) Ratio ([3]; ALS subjects) | Theophylline/Caffeine (T/C) Ratio ([3]; Control subjects) | SMILES |
| --- | --- | --- | --- | --- | --- | --- | --- | --- |
| 1.1467 | 1.0358 | 0.7105 | 0.7389 | 0.4900 | 0.0294 | – | – | Cn1c(=O)[nH]c2ncn(C)c2c1=O [Paraxanthine, 1-7-dimethylxanthine] |
| – | – | – | – | – | – | 1.3684 | 0.8857 | Cn1c(=O)c2[nH]cnc2n(C)c1=O [Theophylline] |
